“And” between values parts separate entries of the source, which are not always exact repeats. Identical values can stand only once. “Also recorded” adds a separate entry of the source.
Tests used:
[1] = tested on: differentiated 661W cells; test: MTT assay, cannabinoid cytotoxicity on differentiated 661W cells under atmospheric pressure; assay type: cell-based, mouse; settings: 72 hours
Experimental: (§1) Cell Culture and Differentiation: The mouse 661W (RGC-5) cell line was maintained in DMEM cell culture medium supplemented with 10% FBS and 1% Antibiotic-Antimycotic penicillin/streptomycin (growth medium) at 37° C. in a humidified atmosphere of 5% CO2. To induce neuronal differentiation in 661W cells, culture media was replaced by a growth medium containing 321 nM Staurosporine (STSR), and cells were incubated for 24 hrs at 37° C. in a humidified atmosphere of 5% CO2.
(§2) Compounds and Dosing Formulations: Selected cannabinoids: CBN, CBD, CBGA, CBDA, CBND and Δ^9-THC were procured from Cayman and Toronto Research Chemicals. Ethanol was used as the solvent to prepare 1 and 10 mM stock solutions. Treatment concentrations for CBN were prepared at 0.015, 0.05, 0.15, 0.5, 1.5, 5, 10 and 15 μM. Treatment concentrations at 0.5, 1.5 and 5 μM for other cannabinoids were prepared directly in the control medium (DMEM+5% FBS+1% Antibiotic-Antimycotic) by using appropriate stock solution.
(§3) Evaluation of Cytotoxicity and Neuroprotection: Evaluation of cannabinoid cytotoxicity on differentiated 661W cells under atmospheric pressure was carried out using MTT (3-(4,5-dimethylthiazol-2-yl)-2,5-diphenyltetrazolium bromide) assay. The cells were seeded onto 96-well plates (4,000 cells/well) in DMEM complete medium and allowed to reach ˜70% confluence for 24 hrs. After 24 hours, cell culture medium was replaced by growth medium containing 321 nM Staurosporine (STSR) and incubated for 1 day to induce differentiation into a neuronal phenotype.
(§4) MTT Assay: For the MTT assay, differentiated 661W cells were treated with cannabinoids at various concentrations and processed to determine cytotoxicity. Briefly, 5 mg/mL of methylthiazolyldiphenyl-tetrazolium bromide (Sigma-Aldrich) stock solution was prepared in PBS. Following treatment of cannabinoids for 72 hours, 661W cells were incubated with 20 μL of MTT stock solution in 200 μL DMEM for 2 hours at 37° C. Following subsequent washes with PBS, 200 μL of isopropanol was added to each well, and the resulting change in color from dissolving formazan salt was immediately quantified using spectrophotometer (BMG Labtech) at a wavelength of 570 nm. The data was normalized to Vehicle Control (VC) containing 0.15% ethanol and presented as % Cell Death. The VC (%) at atmospheric pressure was considered as 0% cell death. The results are illustrated in FIG. 1.

[2] = tested on: differentiated 661W cells; test: MTT assay, differentiated 661W cells in pressurized chamber at elevated hydrostatic pressure (approximately 20 to 40 mm Hg); assay type: cell-based, mouse; settings: for neuroprotection (Cell Death % vs Normal Pressure Vehicle Control): elevated hydrostatic pressure approximately 20 to 40 mm Hg, 72 hours
Experimental: as §1, §2, §3, §4
Except where indicated all procedures were performed as described in Example 1. Differentiated 661W cells treated with cannabinoids at the respective concentrations were placed in a pressurized chamber where an elevated hydrostatic pressure of […] was maintained for 72 hrs. At the end of incubation, 661W cells were processed for MTT assay to determine cytotoxicity. The results are illustrated in FIGS. 2-5.

[3] = tested on: rat episcleral vein laser photocoagulation model of glaucoma (RGC function); test: pattern electroretinogram (pERG) in the rat episcleral vein laser photocoagulation model of glaucoma; assay type: in vivo; settings: for pERG amplitudes vs baseline (statistical significance): two-way ANOVA, Tukey
Experimental: The pattern electroretinogram (pERG) amplitude a parameter that measures retinal ganglion cell (RGC) activity was evaluated on the eyes of anesthetized animals. During the pERG recording, the eyes were kept moist with a drop of 2.5% GonioVisc ophthalmic lubricant solution (Hub Pharmaceuticals), which also secured electrical contact between the corneas and ERG electrodes. The ERG electrodes were thin silver/silver-chloride wire rings. One eye was recorded while another eye was mechanically occluded. The occluded eye served as a reference in the ERG recording providing minimal physiological noise, while the ground electrode was placed on the tail. Only the signals from the right eye (OD) were recorded. The pERG stimulus was generated with a gamma-linearized monitor screen yielding vertical sinusoidal pattern of 0.10 cycles per degree of visual angle at viewing distance. The mean luminance of stimulation was 45 lux and contrast between dark and white was 99%. […] Two recordings were performed for each eye. For the pERG analysis, the pERG waveforms were superimposed, checked for consistency and averaged as final pERG response. Baseline pERG responses were recorded at day 0 four days prior to the lasering, and on days 7, 14 and day 21 post-lasering. Initially pERG baseline amplitudes were recorded on the eyes of all animals at baseline. The animals were then randomized into control and treatments groups based on their pERG response.
The following treatment arms were used in the study: • Group 1: Vehicle (0.5% DMSO-PBS) (IVT, day 0, day 7 and day 15) n=11 • Group 2: CBN low dose, 5 μM in 0.05% DMSO-PBS (IVT, day 0, day 7 and day 15) n=13 • Group 3: CBN high dose 50 μM in 0.5% DMSO-PBS (IVT, day 0, day 7 and day 15) n=11 • Group 4: Brimonidine (topical, twice daily at 5 μl per eye, day −3 to day 21) n=14

[4] = tested on: differentiated 661W cells; test: MTT assay, CBNA on differentiated 661W cells at elevated hydrostatic pressure (~10-25 mmHg); assay type: cell-based, mouse; settings: elevated hydrostatic pressure approximately 10 to 25 mmHg; 0.015 to 15 μM; 72 hours
Experimental: as §4
In a separate study cannabinol-derivative CBNA at 0.015, 0.05, 0.15, 0.5, 1.5, 5, 10, and 15 μM concentrations was placed on differentiated 661W cells in a pressurized chamber where an elevated hydrostatic pressure of ˜10-25 mmHg was maintained for 72 hrs. At the end of incubation, 661W cells were processed for MTT assay to determine cytotoxicity. The results are illustrated in FIG. 6.

[5] = CBN high dose, 50 μM, IVT day 0, 7 and 15
[6] = CBN low dose, 5 μM, IVT day 0, 7 and 15
[7] = Brimonidine topical, twice daily at 5 μl per eye
[8] = Brimonidine topical, twice daily

Structure (SMILES): CCCCCc1cc(O)c(C/C=C(\C)CCC=C(C)C)c(O)c1 [CBG, cannabigerol]
- toxicity when in contact with neurons ([1]; concentration of about 0.5 μM): high toxicity
- toxicity when in contact with neurons ([1]; concentration of about 1.5 μM): high toxicity
- toxicity when in contact with neurons ([1]; concentration of about 5 μM): high toxicity

Structure (SMILES): C=C(C)[C@@H]1CCC(C)=C[C@H]1c1c(O)cc(CCCCC)cc1O [CBD]
- toxicity when in contact with neurons ([1]; concentration of about 0.5 μM): high toxicity
- toxicity when in contact with neurons ([1]; concentration of about 1.5 μM): high toxicity
- toxicity when in contact with neurons ([1]; concentration of about 5 μM): high toxicity
- neuroprotection (Cell Death % vs Normal Pressure Vehicle Control) ([2]; 0.5 μM, 1.5 μM and 5 μM): absence of significant neuroprotection

Structure (SMILES): C=C(C)[C@@H]1CCC(C)=C[C@H]1c1c(O)cc(CCCCC)c(C(=O)O)c1O [CBDA, cannabidiolic acid]
- toxicity when in contact with neurons ([1]; concentration of about 5 μM): high toxicity
- neuroprotection (Cell Death % vs Normal Pressure Vehicle Control) ([2]; 0.5 μM, 1.5 μM and 5 μM): absence of significant neuroprotection

Structure (SMILES): CCCCCc1cc(O)c2c(c1)OC(C)(C)c1ccc(C)cc1-2 [CBN, 6,6,9-trimethyl-3-pentylbenzo[c]chromen-1-ol]
- neuroprotection (Cell Death % vs Normal Pressure Vehicle Control) ([2]; CBN 0.015 to 15 μM, One-Way ANOVA vs VC): statistically significant neuroprotection; also recorded: significant neuroprotective effect
- neuroprotective effect compared with CBD and Δ^9-THC ([2]; elevated pressure conditions in the pressurized chamber, same conditions): surprisingly superior
- pERG amplitudes vs baseline (statistical significance) ([3]; CBN high dose, 50 μM IVT, days 14 and 21): statistically significant difference in disease induction; also recorded: Statistically significant impairment of RGC function
- pERG amplitude (mean ± SEM), BASELINE ([3]; CBN high dose, 50 μM, IVT day 0, 7 and 15, baseline (before lasering)): 3.83 μV and 3.8 ± 0.4 μV
- pERG amplitude (mean ± SEM), DAY 7 [3, 5]: 3.6 ± 0.6 μV
- pERG amplitude (mean ± SEM), DAY 14 [3, 5]: 1.87 μV and 1.9 ± 0.3 μV
- pERG amplitude (mean ± SEM), DAY 21 [3, 5]: 2.19 μV and 2.2 ± 0.4 μV
- pERG amplitude reduction compared to baseline value, Day 7 ([3]; CBN high dose, 50 μM, IVT): −6.4%
- pERG amplitude reduction compared to baseline value, Day 14 ([3]; CBN high dose, 50 μM, IVT, **p<0.01 vs baseline): −51.2** %
- pERG amplitude reduction compared to baseline value, Day 21 ([3]; CBN high dose, 50 μM, IVT, *p<0.05 vs baseline): −42.9* %
- neuroprotective effect on RGCs ([3]; CBN low dose of 5 μM final concentration inside the eye): confers neuroprotective effect on RGCs similar to ALPHAGAN
- pERG amplitudes vs baseline (statistical significance) ([3]; CBN low dose, 5 μM final concentration inside the eye, follow-up days 14 and 21): did not differ significantly from the baseline
- pERG amplitude (mean ± SEM), BASELINE ([3]; CBN low dose, 5 μM, IVT day 0, 7 and 15, baseline (before lasering)): 3.3 ± 0.3 μV
- pERG amplitude (mean ± SEM), DAY 7 [3, 6]: 3.2 ± 0.5 μV
- pERG amplitude (mean ± SEM), DAY 14 [3, 6]: 2.3 ± 0.2 μV
- pERG amplitude (mean ± SEM), DAY 21 [3, 6]: 2.2 ± 0.3 μV
- pERG amplitude reduction compared to baseline value, Day 7 ([3]; CBN low dose, 5 μM, IVT): −3.7%
- pERG amplitude reduction compared to baseline value, Day 14 ([3]; CBN low dose, 5 μM, IVT): −31.2%
- pERG amplitude reduction compared to baseline value, Day 21 ([3]; CBN low dose, 5 μM, IVT): −31.6%

Structure (SMILES): CCCCCc1cc(O)c2c(c1)OC(C)(CCC=C(C)C)C=C2 (stereo not drawn) [CBC, cannabichromene]
- toxicity when in contact with neurons ([1]; concentration of about 1.5 μM): high toxicity
- toxicity when in contact with neurons ([1]; concentration of about 5 μM): high toxicity

Structure (SMILES): Brc1c(NC2=NCCN2)ccc2nccnc12 [Alphagan, Brimonidine]
- pERG amplitudes vs baseline (statistical significance) ([3]; Brimonidine (ALPHAGAN) topical twice daily, follow-up days 14 and 21): did not differ significantly from the baseline
- pERG amplitude (mean ± SEM), BASELINE ([3]; Brimonidine topical, twice daily at 5 μl per eye, day −3 to day 21, baseline): 3.6 ± 0.4 μV
- pERG amplitude (mean ± SEM), DAY 7 [3, 7]: 3.9 ± 0.6 μV
- pERG amplitude (mean ± SEM), DAY 14 [3, 7]: 2.8 ± 0.4 μV
- pERG amplitude (mean ± SEM), DAY 21 [3, 7]: 2.4 ± 0.3 μV
- pERG amplitude reduction compared to baseline value, Day 7 [3, 8]: 9.6%
- pERG amplitude reduction compared to baseline value, Day 14 [3, 8]: −22.8%
- pERG amplitude reduction compared to baseline value, Day 21 [3, 8]: −31.6%

Structure (SMILES): CCCCCc1cc2c(c(O)c1C(=O)O)-c1cc(C)ccc1C(C)(C)O2 [CBNA, cannabinolic acid]
- neuroprotection (Cell Death % vs Vehicle Control) [4]: statistically significant neuroprotection

Structure (SMILES): C=C(C)c1ccc(C)cc1-c1c(O)cc(CCCCC)cc1O [CBND]
- toxicity when in contact with neurons ([1]; concentration of about 1.5 μM): high toxicity
- toxicity when in contact with neurons ([1]; concentration of about 5 μM): high toxicity
- neuroprotection (Cell Death % vs Normal Pressure Vehicle Control) ([2]; 0.5 μM, 1.5 μM and 5 μM): absence of significant neuroprotection

Structure (SMILES): CCCCCc1cc(O)c(C/C=C(\C)CCC=C(C)C)c(O)c1C(=O)O [CBGA]
- toxicity when in contact with neurons ([1]; concentration of about 0.5 μM): high toxicity
- toxicity when in contact with neurons ([1]; concentration of about 1.5 μM): high toxicity
- toxicity when in contact with neurons ([1]; concentration of about 5 μM): high toxicity
- neuroprotection (Cell Death % vs Normal Pressure Vehicle Control) ([2]; 0.5 μM, 1.5 μM and 5 μM): absence of significant neuroprotection

Structure (SMILES): CCCCCc1cc(O)c2c(c1)OC(C)(C)[C@@H]1CCC(C)=C[C@@H]21 [Δ^9-THC, Δ^9-tetrahydrocannabinol]
- toxicity when in contact with neurons ([1]; concentration of about 5 μM): high toxicity
- neuroprotection (Cell Death % vs Normal Pressure Vehicle Control) ([2]; 0.5 μM, 1.5 μM and 5 μM): absence of significant neuroprotection
